Test results as given in article PMC4796321, “Type 1 diabetes vaccine candidates promote human Foxp3^+Treg induction in humanized mice” (Nature Communications, 2016).

Molecular target: HLA-DQ8
Test: Competitive in vitro HLA-DQ8 binding assay
Set-up: species or system human
Details: competition with FITC-labelled GAD65 253-265 R255F peptide (10 μM), thrombin-cleaved HLA-DQ8 monomers 0.4 μM, 48 h at 37 °C; one-site competitive binding fit
Procedure: Competitive binding assays were carried out according to previously established procedures[30][67][68]: HLA-DQ8 monomers were kindly provided by R.A.W. from the NIH Tetramer Core Facility (Atlanta, USA). The CLIP peptide of HLA-DQ8 molecules was cleaved off by incubation with thrombin (Novagen) for 2 h (ref. [69]).
Specifically, a FITC-labelled GAD65 253-265^R255F peptide (IAFFKMFPEVKEK) was used as an indicator peptide (10 μM) for the binding reaction together with thrombin-cleaved HLA-DQ8 monomers (0.4 μM) and increasing concentrations of competitor peptides (natural insulin B:9-23, ins.mim.1,2,3,4, MP185-204). The MP185-204 peptide ([…]) was used as a positive DQ8-binding control. The indicator peptide incubated with DQ8 monomers in the absence of competitor peptide was used as positive control. For background analysis the binding reaction was performed without HLA-DQ8 monomers. The binding reaction was incubated for 48 h at 37 °C. Assays were then captured using anti-DQ antibody-coated plates (SPV-L3, Abcam, 15 μg ml^−1). Detection was performed using anti-FITC HRP (Abcam, 1:1,000) antibodies in combination with TMB substrate (BD Biosciences) and subsequent analysis with the Epoch plate reader (Biotech) at 450 and 405 nm. […]

## ins.mim.1: novel human insulin-B-chain-10-23 mimetope with 14E, 21G and 22E
  IC50: 3.2 µM

## ins.mim.2: insulin-B:10-23 peptide variant with 21G and 22E, previously established
  IC50: 6.3 µM
